Source: patent publication US7425567B2, “Piperidine derivative compounds and drugs containing the compounds as the active ingredient” (Ono Pharmaceutical Co., Ltd., priority 2002, dated 2008)

Columns and labels:
[1] = tested on: TNF-α production; test: TNF-α production inhibitory effect in LPS-stimulated heparinized blood; type: cell-based; settings: blood of a healthy person, 6 hours incubation, human TNF-α ELISA
Experimental: A heparinized blood sample collected from a healthy person was dispensed in 180 μl/well into a 96-well plate. A solution of compound 1 (final concentration of DMSO: 0.1% or less) was dispensed at 10 μl and the plate was allowed to stand at 37° C. for 30 minutes in a 5% CO2 incubator. The reaction was initiated by adding 10 μl of LPS solution. After 6 hours of incubation in a CO2 incubator (5% CO2, humidified), the plate was shaken and then centrifuged at 300×g for 5 minutes to recover 50 μl of the supernatant (blood plasma). The amount of TNF-α in the supernatant was measured using a human TNF-α ELISA kit (DIACLONE Cat. No. 850.090.096) in accordance with the method attached thereto.

[2] = molecular target: PDE4; test: In vitro enzyme assay, PDE4 inhibitory activity; type: biochemical; settings: PDE4 enzyme solution from U937 cells (derived from human monocyte), 3H-cAMP substrate, room temperature, 30 minutes; read-out: IC50 (concentration of 50% inhibition of PDE4 activity)
Experimental: U937 cells (derived from human monocyte) were cultured in PRMI 1640 medium containing 10% bovine fetal serum. The U937 cells were harvested and homogenized in 50 mM Tris-HCl buffer [pH 7.5, containing PMSF (1 mM), leupeptin (1 μg/ml) and pepstatin A (1 μg/ml)]. After centrifugation (at 15,000 rpm for 10 minutes), the supernatant was recovered and filtered through a 0.45 μm filter. The sample was applied to MonoQ (manufactured by Pharmacia, strong anion exchange resin) column and eluted by a density gradient of 0 to 0.8 M NaCl. Fractions from which the PDE activity was disappeared by 10 μM rolipram (a PDE4-selective inhibitor) were recovered and used as the enzyme solution for the measurement of PDE4 inhibitory activity.
The enzyme activity was measured by the following method. […] To an alumina column (100 μl), was applied 50 μl of the supernatant, eluted with 80 μl of 0.005 N hydrochloric acid, and radioactivity of the eluate was measured.
PDE4 inhibitory activity ratio of the compound of the present invention of formula (I) was calculated by the following equation: PDE4 activity inhibitory ratio (%)=(1−radioactivity in the presence of the compound of the present invention of formula (1)/radioactivity in the absence of the compound of the present invention of formula (I))×100 […]

In the case of `N#CC1(c2ccc(OC(F)F)c(OC3CCCC3)c2)CCN(CC(=O)O)CC1` [compound 1, 2-(4-(3-cyclopentyloxy-4-difluoromethoxyphenyl)-4-cyanopiperidin-1-yl)acetic acid monohydrate], the “inhibitory activity against TNF-α production” value [1] is reported as “dose-dependent inhibitory activity” and the IC50 [2] is reported as 42 nM.
